Like-named read-outs stand apart in the source and are kept apart here.
Key:
Platypus Mel1C [1] = target: T1, Platypus Mel1C (Ornithorhynchus anatinus, UniProt A0A2P1K6N2); experiment: 2-[125I]-iodomelatonin competition binding, transiently transfected COS7 cells, platypus Mel1c; settings: COS7 cells transiently transfected with Mel1c gene; radioligand 2-[125I]-iodomelatonin; two transfections, triplicate
Protocol: (§1) COS7 cells obtained from the American Type Culture Collection were maintained in DMEM GlutaMAX (Thermo Fisher Scientific, Waltham, USA) supplemented with 10% (v/v) fetal calf serum. Nucleofection of COS7 cells was performed according to the manufacturer's instructions using the Nucleofector machine (Amaxa, Cologne, Germany). Adherent COS7 cells were washed in phosphate-buffered saline (PBS), trypsinized, and gently resuspended in V nucleofection solution to a final concentration of 7 × 10^6 cells/100 μl. Next, 5 μg of pCIneo/Mel1c vector was mixed with 100 μl of the COS7 cell suspension, transferred to a […] electroporation cuvette, and nucleofected using program A024 and an Amaxa Nucleofector apparatus. Just after the nucleofection, 500 μl of media supplemented with 20% (v/v) fetal calf serum was added to the cell suspension and cultured in a humidified 37°C, 5% CO2 incubator for 20 minutes. Fourteen million cells were transferred to a T225 flask containing 50 ml of media supplemented with 20% (v/v) fetal calf serum and cultured in a humidified 37°C, 5% CO2 incubator. Two days after transfection, the cells were harvested in PBS, pelleted, and stored at -80°C until use.
(§2) This approach has been described very often by our laboratory and others. […] The results were expressed as Ki, taking into account the concentration of radioligand used in each experiment. […] The reaction was stopped by rapid filtration through GF/B Unifilters, followed by three successive washes with ice-cold buffer. Data were analyzed by using the program PRISM (GraphPad Software Inc., San Diego, CA). For saturation assays, the density of binding sites (Bmax) and the dissociation constant of the radioligand (KD) were calculated according to the Scatchard method. […] A similar protocol was used when the binding was performed on whole cells, as described by Legros et al.. As per Plos One policy, all the raw data–listings from radioactivity counter are attached as raw files (Supplementary Tables A to M in S1 Data).
(§3) To obtain stable expression of the receptor for future studies, a preliminary step involving transient expression of the receptor was performed. The Mel1c receptors from the three species were expressed in transiently transfected COS7 cells. A limited number of compounds were tested in order to gain a preliminary perception of the characteristics of Mel1c from these species.

X. laevis Mel1c receptor = target: T2, X. laevis Mel1c receptor (Xenopus laevis, UniProt P49219); experiment: 2-[125I]-iodomelatonin competition binding, transiently transfected COS7 cells, Xenopus Mel1c; settings: COS7 cells transiently transfected with Mel1c gene; radioligand 2-[125I]-iodomelatonin; two transfections, triplicate; read-out: pKi Xenopus laevis (converted)
T2 construct: expressed in transfected cells; host or cells: COS7 (transient nucleofection, pCIneo vector)
T2 sequence (P49219 1-354 isoform P49219-2): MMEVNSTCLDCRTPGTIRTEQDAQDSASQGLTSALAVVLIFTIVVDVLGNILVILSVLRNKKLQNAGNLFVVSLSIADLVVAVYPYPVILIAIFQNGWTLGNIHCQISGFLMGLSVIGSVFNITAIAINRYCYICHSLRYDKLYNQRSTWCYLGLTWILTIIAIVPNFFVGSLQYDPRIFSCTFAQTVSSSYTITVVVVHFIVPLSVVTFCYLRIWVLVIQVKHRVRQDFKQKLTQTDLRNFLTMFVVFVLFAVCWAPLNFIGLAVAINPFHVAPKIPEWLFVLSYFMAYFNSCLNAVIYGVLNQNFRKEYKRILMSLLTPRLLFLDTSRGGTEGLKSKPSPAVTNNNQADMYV
Protocol: as §1, §2, §3

Platypus Mel1C [2] = target: T1, Platypus Mel1C; experiment: 2-[125I]-iodomelatonin competition binding, membranes from stably transfected CHO cells, platypus Mel1c
Protocol: (§4) CHO-Flp-In cells (Thermo Fisher Scientific, Waltham, USA) were cultivated in the presence of zeocin (0.1 mg/ml). The cells were cotransfected with either platypus (cloned sequence that will be submitted to GenBank) Mel1c/pcDNA5-FRT (platypus Mel1c) or X. laevis (NM 001087919.1) Mel1c/pcDNA5-FRT (clawed frog Mel1c) and Flp recombinase expression pOG44 plasmid using PEIpro (Invitrogen, Carlsbad, CA). CHO cells stably expressing platypus Mel1c or clawed frog Mel1c were selected using hygromycin (0.6 mg/ml). CHO-Flp-In-platypus Mel1c cells were grown in HAM F12 with 2 mM glutamine and supplemented with 10% fetal calf serum. Cells were selected using antibiotic pressure (hygromycin) for 72 h. […] After confirmation of the presence of the transgene, the cells were amplified up to 2 x 10^9 cells. This material was used to prepare the cell membranes used in further pharmacological experiments.
(§5) This standard procedure was described in a previous experiment with CHO cells expressing the sheep MT2 receptor [23]. […] The resulting pellet was suspended in 5 mM Tris/HCl (pH 7.4) containing 2 mM EDTA and homogenized using a Kinematica polytron. The homogenate was then centrifuged (20,000g, 30 min, 4°C) and the resulting pellet suspended in 75 mM Tris/HCl (pH 7.4) containing 2 mM EDTA and 12.5 mM MgCl2. The protein content was determined according to the method of Lowry et al. using the Bio-Rad kit (Bio-Rad SA, Ivry-sur-Seine, France). Aliquots of membrane preparations were stored in binding buffer (50 mM Tris/HCl, pH 7.4 containing 5 mM MgCl2 and 1 mM EDTA) at –80°C until use.
as §2

Xenopus Mel1C = target: T3, Xenopus Mel1C (Xenopus laevis, UniProt P49219); experiment: 2-[125I]-iodomelatonin competition binding, membranes from stably transfected CHO cells, Xenopus Mel1c; settings: radioligand 2-[125I]-iodomelatonin
T3 construct: expressed in transfected cells
T3 sequence (P49219 1-420): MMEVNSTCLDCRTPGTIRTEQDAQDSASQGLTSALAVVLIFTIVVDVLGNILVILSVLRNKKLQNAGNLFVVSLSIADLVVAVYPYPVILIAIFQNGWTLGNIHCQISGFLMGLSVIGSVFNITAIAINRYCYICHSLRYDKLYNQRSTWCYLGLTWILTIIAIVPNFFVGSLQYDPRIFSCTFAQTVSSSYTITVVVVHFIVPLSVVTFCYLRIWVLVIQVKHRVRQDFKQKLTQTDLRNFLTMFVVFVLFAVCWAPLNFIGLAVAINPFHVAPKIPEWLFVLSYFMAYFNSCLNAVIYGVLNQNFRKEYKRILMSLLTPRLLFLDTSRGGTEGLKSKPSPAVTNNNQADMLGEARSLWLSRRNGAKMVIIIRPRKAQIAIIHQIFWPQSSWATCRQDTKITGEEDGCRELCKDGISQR
Protocol: as §4, §5, §2

quinone reductase 2; QR2 = test system: quinone reductase 2; QR2; set-up: method as in PMID 10913150; settings: introduction statement, 'in the 10 μM range'; cited from earlier work
GPR50 = settings: mammalian melatonin-related receptor; cited from earlier work
MT1 = settings: introduction statement; cited from earlier work
MT2 = settings: introduction statement; cited from earlier work
G. gallus Mel1c receptor = target: T4, G. gallus Mel1c receptor (Gallus gallus, UniProt P49288); experiment: 2-[125I]-iodomelatonin competition binding, transiently transfected COS7 cells, chicken Mel1c; settings: COS7 cells transiently transfected with Mel1c gene; radioligand 2-[125I]-iodomelatonin; two transfections, triplicate; read-out: pKi Gallus gallus (converted)
T4 construct: expressed in transfected cells; host or cells: COS7 (transient nucleofection, pCIneo vector)
T4 sequence (P49288 1-346): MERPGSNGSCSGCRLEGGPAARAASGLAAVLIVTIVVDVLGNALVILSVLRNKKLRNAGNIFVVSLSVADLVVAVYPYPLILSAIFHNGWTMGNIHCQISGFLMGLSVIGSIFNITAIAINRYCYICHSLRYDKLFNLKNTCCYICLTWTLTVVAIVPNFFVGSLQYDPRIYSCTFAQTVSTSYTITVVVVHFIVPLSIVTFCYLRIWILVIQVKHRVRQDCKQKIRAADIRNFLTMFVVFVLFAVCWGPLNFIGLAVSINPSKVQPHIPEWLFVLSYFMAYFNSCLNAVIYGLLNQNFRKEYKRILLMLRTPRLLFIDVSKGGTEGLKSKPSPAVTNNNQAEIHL
Protocol: as §1, §2, §3

hMT1 = hMT1 (Homo sapiens, UniProt P48039); experiment: 2-[125I]-iodomelatonin competition binding, human MT1; settings: membranes from stably transfected CHO cells; radioligand 2-[125I]-iodomelatonin; read-out: hMT1 (converted)
Protocol: as §2

hMT2 = target: T5, hMT2 (Homo sapiens, UniProt P49286); experiment: 2-[125I]-iodomelatonin competition binding, human MT2; settings: membranes from stably transfected CHO cells; radioligand 2-[125I]-iodomelatonin; read-out: hMT2 (converted)
T5 sequence (P49286 1-362): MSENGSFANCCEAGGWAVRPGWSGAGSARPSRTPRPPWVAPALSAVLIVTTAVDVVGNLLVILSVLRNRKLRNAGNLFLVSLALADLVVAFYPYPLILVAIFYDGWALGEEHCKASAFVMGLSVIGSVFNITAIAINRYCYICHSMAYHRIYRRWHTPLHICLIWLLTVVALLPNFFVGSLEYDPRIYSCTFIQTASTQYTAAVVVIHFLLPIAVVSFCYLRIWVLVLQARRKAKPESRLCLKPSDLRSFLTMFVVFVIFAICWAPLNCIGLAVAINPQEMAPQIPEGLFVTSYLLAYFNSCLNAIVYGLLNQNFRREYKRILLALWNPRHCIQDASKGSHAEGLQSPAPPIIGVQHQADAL
Protocol: as §2

[3] = membranes from stably transfected CHO cells, radioligand 2-[125I]-iodomelatonin, read-out: Platypus Mel1C (converted)

T1 sequence (A0A2P1K6N2 1-349): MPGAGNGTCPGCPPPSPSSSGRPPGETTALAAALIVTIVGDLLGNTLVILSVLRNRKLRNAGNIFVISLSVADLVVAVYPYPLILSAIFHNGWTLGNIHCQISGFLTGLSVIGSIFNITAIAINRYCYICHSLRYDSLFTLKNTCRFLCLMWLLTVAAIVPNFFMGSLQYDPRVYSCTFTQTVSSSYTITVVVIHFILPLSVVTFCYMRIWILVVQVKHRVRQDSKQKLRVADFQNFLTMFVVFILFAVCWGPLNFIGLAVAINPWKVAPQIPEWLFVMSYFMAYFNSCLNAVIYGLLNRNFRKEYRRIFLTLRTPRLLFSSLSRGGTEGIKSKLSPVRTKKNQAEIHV
Sequence of hMT1 (P48039 whole entry): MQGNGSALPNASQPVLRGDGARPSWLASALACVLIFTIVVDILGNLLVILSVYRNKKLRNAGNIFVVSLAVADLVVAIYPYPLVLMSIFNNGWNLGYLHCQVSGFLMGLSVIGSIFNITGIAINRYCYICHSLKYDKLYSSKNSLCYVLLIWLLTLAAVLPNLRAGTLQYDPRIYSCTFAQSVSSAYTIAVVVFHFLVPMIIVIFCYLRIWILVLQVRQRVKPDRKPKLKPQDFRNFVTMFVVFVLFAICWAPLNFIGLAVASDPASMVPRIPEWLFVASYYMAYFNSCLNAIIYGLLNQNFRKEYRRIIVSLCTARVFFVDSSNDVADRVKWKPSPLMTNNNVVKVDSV

| SMILES | pKi Ornithorhyncus anatinus (Platypus Mel1C [1]) | Ki (X. laevis Mel1c receptor) | Ki (Platypus Mel1C [2]; affinity of platypus Mel1c for melatonin, abstract statement, 'in the 1 nM range') | Ki (Platypus Mel1C [2]; [3]) | Ki (Xenopus Mel1C) | affinity of QR2 for melatonin (quinone reductase 2; QR2) | melatonin binding to GPR50 (GPR50) | affinity of MT1 for melatonin (MT1) | affinity of MT2 for melatonin (MT2) | Ki (G. gallus Mel1c receptor) | Ki (hMT1) | Ki (hMT2) |
| --- | --- | --- | --- | --- | --- | --- | --- | --- | --- | --- | --- | --- |
| COc1ccc2[nH]cc(CCNC(C)=O)c2c1 [Melatonin] | 8.6 | 1.58 nM | ~1 nM | 2 nM | 2 nM | ~10 µM | does not bind melatonin | ≤ 1 nM | ≤ 1 nM |  |  |  |
| CCc1ccc2scc(CCNC(C)=O)c2c1 [S22153, N-[2-(5-ethylbenzothiophen-3-yl)ethyl]acetamide] | 7.6 | 100 nM |  | 50.1 nM | 126 nM |  |  |  |  | 200 nM | 6.31 nM | 10 nM |
